Where a SMILES comes first, the peptide text is derived from it.
Columns and labels:
Assay in all cases: biochemical
Format in all cases: binding
HLA-A*03:01 = HLA-A*03:01 (Homo sapiens, UniProt P04439)
HLA-A*11:01 = HLA-A*11:01 (Homo sapiens, UniProt P04439, A114D/D185E/E176A/F33Y/L180Q/S129P/T187R)
HLA-A*68:01 = HLA-A*68:01 (Homo sapiens, UniProt P04439, A269V/D185E/E176V/E277Q/E87N/F33Y/G231S/I121M/I166T/I218V/L180W/L300P/L318F/N151K/P208A/P217A/Q86R/R169H/T345S)
HLA-A*30:01 = HLA-A*30:01 (Homo sapiens, UniProt P04439, D140H/D185E/E176W/F33S/G80R/H175R/K168Q/R138E/R41S)
HLA-A*31:01 = HLA-A*31:01 (Homo sapiens, UniProt P04439, A270S/D185E/E176V/E277Q/F33T/G231S/G80R/H175R/I121M/I218V/I322F/K168Q/L300P/L318F/M331R/P217A/Q94H/R138Q/T323A/T345S/T97I/V358M)
HLA-B*07:02 = HLA-B*07:02 (Homo sapiens, UniProt P01889)
HLA-A*26:01 = HLA-A*26:01 (Homo sapiens, UniProt P04439, A114D/A173T/A270S/D101N/D185E/E277Q/E87N/F33Y/G231S/I121R/I218V/K168Q/L180W/L300P/L318F/P208A/P217A/Q86R/Q94H/R138Q/S129P/T187R/T323A/T345S/V100A/V358M)
HLA-A*68:02 = HLA-A*68:02 (Homo sapiens, UniProt P04439, A269V/D140Y/D185E/E176V/E277Q/E87N/F33Y/G231S/I121R/I166T/I218V/L180W/L300P/L318F/N151K/P208A/P217A/Q86R/R138H/R169H/S129P/T345S/V36M)

Compound	IC50 (HLA-A*03:01)	IC50 (HLA-A*11:01)	IC50 (HLA-A*68:01)	IC50 (HLA-A*30:01)	IC50 (HLA-A*31:01)	IC50 (HLA-B*07:02)	IC50 (HLA-A*26:01)	IC50 (HLA-A*68:02)
CC(C)C[C@H](NC(=O)[C@H](CO)NC(=O)[C@H](CS)NC(=O)[C@H](Cc1ccccc1)NC(=O)[C@H](CO)NC(=O)[C@@H](N)CC(C)C)C(=O)N[C@@H](Cc1ccccc1)C(=O)N[C@@H](CC(C)C)C(=O)N1CCC[C@H]1C(=O)N[C@@H](CCCCN)C(=O)O (H-LSFCSLFLPK-OH)	4.3 nM	0.68 nM	1 nM	238 nM	686 nM	–	–	–
CC(C)C[C@H](NC(=O)[C@H](C)NC(=O)[C@H](CCC(N)=O)NC(=O)[C@H](CCCCN)NC(=O)[C@H](Cc1ccccc1)NC(=O)[C@H](CO)NC(=O)[C@H](C)NC(=O)[C@@H](NC(=O)[C@@H](N)CCC(=O)O)C(C)C)C(=O)O [EVASFKQAL] (H-EVASFKQAL-OH)	–	–	–	–	–	250 nM	86 nM	2.7 nM

From publication PMC10976095 (Vaccines, 2024)
